Where two headings read alike, the source gives them in different places.
Assays:
[1] = Metabolic stability and intrinsic clearance in human liver microsomes (MICS); type: in vitro ADME; settings: pH 7.4
Procedure: Metabolic Stability and Intrinsic Clearance in Liver Microsomes (MICS)
One objective of this assay is to measure in vitro metabolic stability of a test compound in liver microsomes of one or more different species. The concentration of a control compound in the reaction system is evaluated by LC/MS/MS for calculating intrinsic clearance of a test compound and estimating the stability of the control compound and test compound in liver microsomes of one or more different species.
Microsomes (MICS). Human Liver Microsomes (HLM), Monkey Liver Microsomes (MKLM), Dog Liver Microsomes (DLM), Rat Liver Microsomes (RLM), and Mouse Liver Microsomes (MLM) are obtained at a concentration of 20 mg/mL protein from commercial sources and stored in a −80° C. freezer. Prior to use, liver microsomes are removed from the freezer and allowed to thaw in a 37° C. water bath and then stored on wet ice.
Stock Solutions. Test Compound (TC) Stock Solutions are prepared in DMSO at a concentration of 10 mM and stored for later use. Positive Control (PC) Stock Solutions of verapamil·HCL (FW: 491.1 g/mol) in DMSO are prepared at a concentration of 10 mM (4.91 mg/mL), and stored at the condition same as the stock solutions of test compounds.
Phosphate Buffer. Phosphate Buffer (100 mM, pH 7.4) is prepared by combining a Solution A and a Solution B as follows.
To prepare Solution A, 7.098 g of disodium hydrogen phosphate was combined with 500 mL of pure water and sonicated to dissolve. To prepare the Solution B, 3.400 g of potassium dihydrogen phosphate was combined with 250 mL of pure water and sonicated to dissolve. Solution A was placed on a stirrer and Solution B was slowly added into Solution A until the pH reached 7.4.
NADPH Solution. A 10 mM NADPH Solution is prepared by dissolving NADPH (MW: 833.4 g/mol) at 8.334 mg/mL in phosphate buffer (100 mM, pH 7.4).
Microsome Master Solution. A Microsome Master Solution is prepared by adding 6.25 μL microsomes (20 mg/mL) to 216.25 μL Phosphate Buffer (100 mM). The final concentration is Phosphate Buffer (100 mM); microsomes (0.5 mg/mL).
Dilution of Stock Solutions. The TC Stock Solutions (10 mM in DMSO) and the PC Stock Solutions (10 mM in DMSO) are diluted by adding 3 μL of the TC Stock Solution or the PC Stock Solution to 297 μL of 50% acetonitrile/50% water.
Incubation. Two separated experiments were performed as follows. a) With Cofactors (NADPH): 25 μL of 10 mM NADPH was added to the incubations. The final concentrations of
microsomes and NADPH were 0.5 mg/mL and 1 mM, respectively. b) Without Cofactors (NADPH): 25 μL of 100 mM Phosphate buffer was added to the incubations. The final concentration of microsomes was 0.5 mg/mL. The mixture was pre-warmed at 37° C. for 10 minutes.
The reaction was started with the addition of 2.5 μL of 100 μM PC solution or TC solutions.
Verapamil was used as PC in this study. The final concentration of test compound or control compound was 1 μM. The incubation solution was incubated in water batch at 37° C.
Reaction Termination. Aliquots of 30 μL were taken from the reaction solution at 0.5, 5, 15, 30 and 60 minutes and added to plates. The reaction was stopped by the addition of 5 volumes of cold acetonitrile and a solution containing 100 nM alprazolam, 200 nM caffeine and 100 nM tolbutamide.
Sampling. The plates containing the terminated reactions were centrifuged at 4000 rpm for 30 minutes. Supernatant of each compound (40 μL) was transferred into a 96-well analysis plate.
Four compound samples are pooled together into one cassette and diluted by adding 160 μL of pure water. All incubations are performed in duplicate.
Analysis and Data Processing. Quantitative LC-MS analysis is performed, and peak areas are determined from extracted ion chromatograms. Percent parent remaining was calculated from peak area of TC or PC. The slope value, k, is determined by linear regression of the natural logarithm of percent parent remaining vs. incubation time curve. […]

PI3Kα E545K = PI3Kα E545K (Homo sapiens, UniProt P42336, E545K); test: PI3Kα E545K mutant in vitro cell based assay, MDA-MB-361 cells; parameters: MDA-MB-361 (ATCC-HTB-27) cell line (PI3Kα E545K); host or cells: MDA-MB-361; settings: MDA-MB-361 cell line, 0% FBS, no insulin, 3 hours treatment
PI3Kα E545K, sequence (P42336 whole entry E545K): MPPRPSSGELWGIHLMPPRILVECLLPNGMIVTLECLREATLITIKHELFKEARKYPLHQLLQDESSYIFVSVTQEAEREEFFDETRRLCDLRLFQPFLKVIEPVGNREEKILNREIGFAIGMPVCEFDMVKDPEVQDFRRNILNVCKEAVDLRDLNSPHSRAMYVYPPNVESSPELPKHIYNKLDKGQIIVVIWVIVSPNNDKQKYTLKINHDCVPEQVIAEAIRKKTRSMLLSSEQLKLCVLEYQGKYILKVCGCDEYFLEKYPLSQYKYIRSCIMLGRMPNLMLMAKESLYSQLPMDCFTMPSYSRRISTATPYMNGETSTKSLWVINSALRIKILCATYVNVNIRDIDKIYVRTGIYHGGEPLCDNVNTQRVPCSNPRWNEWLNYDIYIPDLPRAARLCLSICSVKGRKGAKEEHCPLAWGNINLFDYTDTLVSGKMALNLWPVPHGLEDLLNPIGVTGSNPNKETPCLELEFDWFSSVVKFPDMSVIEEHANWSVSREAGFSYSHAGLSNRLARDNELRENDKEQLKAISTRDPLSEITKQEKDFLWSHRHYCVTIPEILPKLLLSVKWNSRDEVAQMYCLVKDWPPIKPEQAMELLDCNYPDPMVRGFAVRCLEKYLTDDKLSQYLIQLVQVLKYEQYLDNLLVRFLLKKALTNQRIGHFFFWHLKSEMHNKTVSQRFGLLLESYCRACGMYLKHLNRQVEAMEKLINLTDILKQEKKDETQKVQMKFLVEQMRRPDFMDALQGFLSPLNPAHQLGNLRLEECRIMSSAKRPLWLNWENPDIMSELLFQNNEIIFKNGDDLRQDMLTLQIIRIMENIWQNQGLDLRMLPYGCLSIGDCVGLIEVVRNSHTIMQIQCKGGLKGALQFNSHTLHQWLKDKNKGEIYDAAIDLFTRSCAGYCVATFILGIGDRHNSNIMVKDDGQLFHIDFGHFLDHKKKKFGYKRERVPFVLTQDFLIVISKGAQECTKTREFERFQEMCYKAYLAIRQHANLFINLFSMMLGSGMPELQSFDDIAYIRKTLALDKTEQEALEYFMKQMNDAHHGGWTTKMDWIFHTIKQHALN
PI3Kα E545K, sequence (P27986 whole entry partner): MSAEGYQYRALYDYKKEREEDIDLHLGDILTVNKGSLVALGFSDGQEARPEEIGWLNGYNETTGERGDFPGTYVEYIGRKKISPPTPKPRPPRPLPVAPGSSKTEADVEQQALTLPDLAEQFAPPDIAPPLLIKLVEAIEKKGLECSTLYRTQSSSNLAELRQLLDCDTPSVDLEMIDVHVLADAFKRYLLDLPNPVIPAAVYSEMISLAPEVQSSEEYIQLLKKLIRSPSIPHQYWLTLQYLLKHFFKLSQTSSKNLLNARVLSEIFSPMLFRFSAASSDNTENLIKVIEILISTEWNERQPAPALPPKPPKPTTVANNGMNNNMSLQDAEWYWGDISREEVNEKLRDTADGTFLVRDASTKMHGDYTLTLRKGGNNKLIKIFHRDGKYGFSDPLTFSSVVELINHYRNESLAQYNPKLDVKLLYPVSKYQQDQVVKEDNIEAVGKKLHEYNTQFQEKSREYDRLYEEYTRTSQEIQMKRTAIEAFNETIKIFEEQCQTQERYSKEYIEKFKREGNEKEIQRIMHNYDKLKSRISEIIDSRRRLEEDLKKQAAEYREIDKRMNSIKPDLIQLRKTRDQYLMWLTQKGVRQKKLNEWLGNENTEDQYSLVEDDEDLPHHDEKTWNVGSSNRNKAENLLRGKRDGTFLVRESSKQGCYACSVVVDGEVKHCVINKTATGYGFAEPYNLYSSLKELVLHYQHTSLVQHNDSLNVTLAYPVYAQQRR
Excerpt: PI3K-Alpha Kinase (PI3Kα) Activity: Wild-Type PI3Kα, H1047R Mutant PI3Kα, and E545K Mutant PI3Kα In Vitro Cell Based Assays and Determination of IC50 Values for Inhibitors
The MDA-MB-453 (ATCC-HTB-131) cell line (PI3Kα H1047R) and MCF-7 (ATCC-HTB-22) cell line (PI3Kα E545K), MDA-MB-361 (ATCC-HTB-27) cell line (PI3Kα E545K), and SKBR3 (ATCC-HTB-30) cell line (wild type PI3Kα) were obtained from the American Type Culture Collection (Manassas, VA). MDA-MB-453 cells were maintained in Dulbecco's Modified Eagle Media (DMEM, Gibco 12430) supplemented with 10% Fetal Bovine Serum, heat inactivated (FBS HI, Gibco 10082), 1× non-essential amino acids (NEAA, Gibco 11140), 1 mM sodium pyruvate (Gibco 11360) and 1× Anti-Anti (Gibco 15240). MCF-7 cells were maintained in Minimum Essential Media (MEM) (Gibco 11095) supplemented with 10% Fetal Bovine Serum, heat inactivated (FBS HI, Gibco 10082), 1× non-essential amino acids (NEAA, Gibco 11140), 1 mM sodium pyruvate (Gibco 11360), 1× Anti-Anti (Gibco 15240) and 10 μg/mL human insulin (Sigma I 9278). MDA-MB-361 cells were maintained in Dulbecco's Modified Eagle Media (DMEM, Gibco 12430) supplemented with 20% Fetal Bovine Serum, heat inactivated (FBS HI, Gibco 10082), 1× non-essential amino acids (NEAA, Gibco 11140), 1 mM sodium pyruvate (Gibco 11360) and 1× Anti-Anti (Gibco 15240). SKBR3 cells were maintained in McCoy's 5A (Gibco 16600) supplemented with 10% Fetal Bovine Serum, heat inactivated (FBS HI, Gibco 10082), and 1× Anti-Anti (Gibco 15240). Cultures were maintained in a humidified incubator at 37° C. under 5% CO2/95% air.
For compound testing in 0% FBS, MDA-MB-453, MCF-7 and SKBR3 cells were seeded at a density of 1.5×10^4, 1.0×10^4, and 1.0×10^4 cells, respectively, per well in white 384-well plates in 20 μl of Minimum Essential Media (MEM) assay media with 1×NEAA, 1 mM sodium pyruvate, and 1 μg/mL human insulin (Sigma 19278) (Assay Medium); while MDA-MB-361 cells were seeded at a density of 1.5×10^4 per well in white 384-well plates in 20 μl Assay Medium without insulin. After plating, cells were allowed to attach overnight. Compounds dissolved in 10 mM stock solutions in DMSO were serially diluted 1:3 in DMSO to generate a 10-point dilution series and plated using an acoustic liquid handler system (Echo 550 Series Liquid Handler, Labcyte). A 5× intermediate compound dilution plate in MEM with 1×NEAA and 1 mM sodium pyruvate (150 μM starting compound concentration in 1.5% DMSO) was then prepared. Five μl of the intermediate serially diluted compounds were added to the cell plate to final concentrations ranging from […] in 0.3% DMSO. 0.3% DMSO alone was used to establish the maximum (MAX) signal and GDC-0032 at a final concentration of 1 μM was used as a reference compound for the minimum (MIN) signal. After 3 hours treatment, the medium was removed, and the cells were lysed in 10 μL of 1× SureFire Lysis buffer with shaking for 10 minutes at room temperature. The Acceptor Mix (Reaction Buffer 1+Reaction Buffer 2+Activation Buffer+SureFire Ultra Acceptor Beads) was prepared by diluting Activation buffer 25-fold in combined Reaction Buffer 1 and Reaction Buffer 2.
The Acceptor beads were diluted 50-fold in the combined Reaction Buffers. Five μL of Acceptor Mix was added to each well, the plate was sealed and covered with foil and incubated for 1 hour at room temperature. The Donor Mix (dilution buffer+SureFire Ultra Donor Beads) was prepared by diluting Donor Beads 50-fold in dilution buffer. Five μL of the Donor Mix was added to each well and the plate sealed and covered with foil and incubated for 1-2 hours at room temperature in the dark. The plates were read on a Neo2 plate reader instrument from Biotek using standard AlphaLisa settings.
Compounds were tested in duplicate and the % inhibition at each compound concentration was used to generate two dose response curves. One IC50 was generated using average % inhibition at each compound concentration. […]

[2] = human liver microsomes 0.5 mg/mL, 1 μM compound, read-out: intrinsic clearance in human MICS

Structure (SMILES)	microsomal CLint at 1 μM ([1]; human, microsomes) [µL/min/mg]	microsomal CLint at 1 μM [1, 2] [µL/min/mg]	further results
Cc1cc([C@@H](C)Oc2ccc(Cl)nc2S(N)(=O)=O)c2oc(-c3cnn(C)c3)c(Cl)c(=O)c2c1 (single isomer, unassigned) [Example 111C]	< 50	–	–
Cc1cc([C@@H](C)Oc2ccc(Cl)nc2-c2noc(=O)[nH]2)c2oc(-c3cnc4scnc4c3)c(C)c(=O)c2c1 [Example 1B, 3-[6-Chloro-3-[(1R)-1-(3,6-dimethyl-4-oxo-2-thiazolo[5,4-b]pyridin-6-yl-chromen-8-yl)ethoxy]-2-pyridyl]-4H-1,2,4-oxadiazol-5-one]	< 50	–	–
Cc1cc([C@@H](C)Oc2cccnc2-c2noc(=O)[nH]2)c2oc(-c3ccccc3)c(C)c(=O)c2c1 [Example 3, 3-[3-[(1R)-1-(3,6-Dimethyl-4-oxo-2-phenyl-chromen-8-yl)ethoxy]-2-pyridyl]-4H-1,2,4-oxadiazol-5-one]	–	< 50	–
Cc1cc([C@@H](C)Oc2ccccc2-c2noc(=O)[nH]2)c2oc(-c3ccccc3)c(C)c(=O)c2c1 [Example 4, 3-[2-[(1R)-1-(3,6-Dimethyl-4-oxo-2-phenyl-chromen-8-yl)ethoxy]phenyl]-4H-1,2,4-oxadiazol-5-one]	–	< 50	–
Cc1cc([C@@H](C)Oc2cccc(F)c2-c2noc(=O)[nH]2)c2oc(-c3ccccc3)c(C)c(=O)c2c1 [Example 5, 3-[2-[(1R)-1-(3,6-Dimethyl-4-oxo-2-phenyl-chromen-8-yl)ethoxy]-6-fluoro-phenyl]-4H-1,2,4-oxadiazol-5-one]	–	< 50	–
Cc1cc([C@@H](C)Oc2ccc(Cl)nc2S(N)(=O)=O)c2oc(-c3ccc4nn(C)cc4n3)c(C)c(=O)c2c1 [Example 5B, 6-Chloro-3-[(1R)-1-[3,6-dimethyl-2-(2-methylpyrazolo[4,3-b]pyridin-5-yl)-4-oxo-chromen-8-yl]ethoxy]pyridine-2-sulfonamide]	< 50	–	–
Cc1cc([C@@H](C)Oc2ccc(Cl)nc2C(=O)NS(C)(=O)=O)c2oc(-c3ccccc3)c(C)c(=O)c2c1 [Example 6, 6-Chloro-3-[(1R)-1-(3,6-dimethyl-4-oxo-2-phenyl-chromen-8-yl)ethoxy]-N-methylsulfonyl-pyridine-2-carboxamide]	–	< 50	–
Cc1cc([C@@H](C)Oc2ccc(Cl)nc2S(N)(=O)=O)c2oc(-c3ccn[nH]3)c(C)c(=O)c2c1 [Example 8C, 6-Chloro-3-[(1R)-1-[3,6-dimethyl-4-oxo-2-(1H-pyrazol-5-yl)chromen-8-yl]ethoxy]pyridine-2-sulfonamide]	< 50	–	–
Cc1cc([C@@H](C)Oc2cccnc2C(N)=O)c2oc(-c3ccc4nn(C)cc4c3)c(C)c(=O)c2c1 [Example 10A, 3-[(1R)-1-[3,6-Dimethyl-2-(2-methylindazol-5-yl)-4-oxo-chromen-8-yl]ethoxy]pyridine-2-carboxamide]	< 50	–	–
Cc1cc([C@@H](C)Oc2ccc(Cl)nc2S(N)(=O)=O)c2oc(-c3cnc(C)o3)c(C)c(=O)c2c1 [Example 10C, 6-Chloro-3-[(1R)-1-[3,6-dimethyl-2-(2-methyloxazol-5-yl)-4-oxo-chromen-8-yl]ethoxy]pyridine-2-sulfonamide]	< 50	–	–
Cc1cc([C@@H](C)Oc2ccc(Cl)nc2C(N)=O)c2oc(-c3cnn4cccnc34)c(C)c(=O)c2c1 [Example 16B, 6-Chloro-3-[(1R)-1-(3,6-dimethyl-4-oxo-2-pyrazolo[1,5-a]pyrimidin-3-yl-chromen-8-yl)ethoxy]pyridine-2-carboxamide]	< 50	–	–
Cc1cc([C@@H](C)Oc2ccc(Cl)nc2S(N)(=O)=O)c2oc(-c3cnn(CC4(C#N)CC4)c3)c(C)c(=O)c2c1 [Example 124C, 6-Chloro-3-[(1R)-1-[2-[1-[(1-cyanocyclopropyl)methyl]pyrazol-4-yl]-3,6-dimethyl-4-oxo-chromen-8-yl]ethoxy]pyridine-2-sulfonamide]	–	–	IC50 (PI3Kα E545K): < 500 nM
Cc1cc([C@@H](C)Oc2ccc(Cl)nc2C(N)=O)c2oc(-c3ccc4nn([C@H]5C[C@H](O)C5)cc4c3)c(C)c(=O)c2c1 [Example 134C, 6-Chloro-3-[(1R)-1-[2-[2-(3-hydroxycyclobutyl)indazol-5-yl]-3,6-dimethyl-4-oxo-chromen-8-yl]ethoxy]pyridine-2-carboxamide]	–	–	IC50 (PI3Kα E545K): < 500 nM

Reference: patent US20240182460A1, “ALLOSTERIC CHROMENONE INHIBITORS OF PHOSPHOINOSITIDE 3-KINASE (PI3K) FOR THE TREATMENT OF DISEASE” (PETRA PHARMA CORPORATION, priority 2022, published 2024)
